Laboratory results from patent US20220072015A1, “Methods of Inhibiting Pathological Angiogenesis” (Unity Biotechnology, Inc., priority 2017, published 2022).

Legend:
[1] = test system: senescent fibroblasts (SnCs), IMR90 cells; experiment: Senolytic activity: killing irradiated senescent IMR90 fibroblasts vs replicating or quiescent fibroblasts (CellTiter-Glo); type: cell-based, human; settings: for Best SI: specificity for senescent cells vs replicating or quiescent fibroblasts, 1.0 = non-specific; for senolytic activity, potency: result in words
Text: Human fibroblast IMR90 cells can be obtained from the American Type Culture Collection (ATCC®) with the designation CCL-186. The cells are maintained at <75% confluency in DMEM containing FBS and Pen/Strep in an atmosphere of 3% O2, 10% CO2, and ˜95% humidity. The cells are divided into three groups: irradiated cells (cultured for 14 days after irradiation prior to use), proliferating normal cells (cultured at low density for one day prior to use), and quiescent cells (cultured at high density for four day prior to use).
On day 0, the irradiated cells are prepared as follows. IMR90 cells are washed, placed in T175 flasks at a density of 50,000 cells per mL, and irradiated at 10-15 Gy. Following irradiation, the cells are plated at 100 μL in 96-well plates. On days 1, 3, 6, 10, and 13, the medium in each well is aspirated and replaced with fresh medium.
On day 10, the quiescent healthy cells are prepared as follows. IMR90 cells are washed, combined with 3 mL of TrypLE trypsin-containing reagent (Thermofisher Scientific, Waltham, Mass.) and cultured for 5 min until the cells have rounded up and begin to detach from the plate. Cells are dispersed, counted, and prepared in medium at a concentration of 50,000 cells per mL. 100 μL of the cells is plated in each well of a 96-well plate. Medium is changed on day 13.
On day 13, the proliferating healthy cell population is prepared as follows. Healthy IMR90 cells are washed, combined with 3 mL of TrypLE and cultured for 5 minutes until the cells have rounded up and begin to detach from the plate. Cells are dispersed, counted, and prepared in medium at a concentration of 25,000 cells per mL. 100 μL of the cells is plated in each well of a 96-well plate.
On day 14, test Bcl-2 inhibitors or MDM2 inhibitors are combined with the cells as follows. A DMSO dilution series of each test compound is prepared at 200 times the final desired concentration in a 96-well PCR plate. Immediately before use, the DMSO stocks are diluted 1:200 into prewarmed complete medium. Medium is aspirated from the cells in each well, and 100 μL/well of the compound containing medium is added.
Candidate senolytic agents for testing are cultured with the cells for 6 days, replacing the culture medium with fresh medium and the same compound concentration on day 17. Bcl-2 inhibitors like 001967 are cultured with the cells for 3 days. The assay system uses the properties of a thermostable luciferase to enable reaction conditions that generate a stable luminescent signal while simultaneously inhibiting endogenous ATPase released during cell lysis. At the end of the culture period, 100 μL of CellTiter-Glo® reagent (Promega Corp., Madison, Wis.) is added to each of the wells. The cell plates are placed for 30 seconds on an orbital shaker, and luminescence is measured.
Furthermore, even if the compound is potent, it would not be suitable for use as a therapeutic unless it preferentially kills senescent cells with a high degree of selectivity. Accordingly, compounds in the library showing high Bcl binding affinity were further screened for their ability to kill irradiated fibroblasts, in comparison with replicating fibroblasts or fibroblasts that were quiescent (due to confluence) but not senescent.

[2] = molecular target: Bcl isoforms; experiment: Binding affinity for the Bcl isoforms; settings: result in words
Text: The ability of candidate compounds to inhibit Bcl-2 and Bcl-xL activity can be measured on the molecular level by direct binding. This assay uses a homogenous assay technology based on oxygen channeling that is marketed by PerkinElmer Inc., Waltham, Mass.: see Eglin et al., Current Chemical Genomics, 2008, 1, 2-10. The test compound is combined with the target Bcl protein and a peptide representing the corresponding cognate ligand, labeled with biotin. The mixture is then combined with streptavidin bearing luminescent donor beads and luminescent acceptor beads, which proportionally reduces luminescence if the compound has inhibited the peptide from binding to the Bcl protein.
Bcl-2, Bcl-xL and Bcl-w are available from Sigma-Aldrich Co., St. Louis, Mo. Biotinylated BIM peptide (ligand for Bcl-2) and BAD peptide (ligand for Bcl-xL) are described in US 2016/0038503 A1. AlphaScreen® Streptavidin donor beads and Anti-6×His AlphaLISA® acceptor beads are available from PerkinElmer.
To conduct the assay, a 1:4 dilution series of the compound is prepared in DMSO, and then diluted 1:100 in assay buffer. In a 96-well PCR plate, the following are combined in order: 10 μL peptide (120 nM BIM or […]), 10 μL test compound, and 10 μL Bcl protein (0.8 nM Bcl-2/W or 0.4 nM Bcl-XL). The assay plate is incubated in the dark at room temperature for 24 h. The next day, donor beads and acceptor beads are combined, and 5 μL is added to each well. After incubating in the dark for 30 minute, luminescence is measured using a plate reader, and the affinity or degree of inhibition by each test compound is determined.

SMILES | binding affinities (Ki) for the Bcl isoforms [2] | Best SI [1] | senolytic activity, potency [1]
CCn1c(C)c(C(=O)O)c(-c2cccc(N3CCN(c4ccc(NS(=O)(=O)c5ccc(N[C@H](CCN6CCC(O)CC6)CSc6ccccc6)c(S(=O)(=O)C(F)(F)F)c5)cc4)CC3)c2)c1-c1ccc(Cl)cc1 [BM-957] |  | 11.7 | 
Cc1c(C(=O)O)c(-c2cccc(N3CCN(c4ccc(NS(=O)(=O)c5ccc(N[C@H](CCN6CCC(O)CC6)CSc6ccccc6)c(S(=O)(=O)C(F)(F)F)c5)cc4)CC3)c2)c(-c2ccc(Cl)cc2)n1C(C)C [BM-962] |  | 18.5 | 
CCn1c(C)c(S(C)(=O)=O)c(-c2cc(F)cc(N3CCN(c4ccc(NS(=O)(=O)c5ccc(N[C@H](CCN6CCC(O)CC6)CSc6ccccc6)c(S(=O)(=O)C(F)(F)F)c5)cc4)CC3)c2)c1-c1ccc(F)cc1 [BM-1192] |  | 60.0 | 

More lines, main results first:

binding affinities (Ki) for the Bcl isoforms [2] | SMILES | Best SI [1] | senolytic activity, potency [1]
nanomole to picomole range | Cc1c(S(C)(=O)=O)c(-c2cc(F)cc(N3CCN(c4ccc(NS(=O)(=O)c5ccc(N[C@H](CCN6CCC(O)CC6)CSc6ccccc6)c(S(=O)(=O)C(F)(F)F)c5)cc4)CC3)c2)c(-c2ccc(F)cc2)n1C(C)C [BM-1195] | 128.7 | potent in the nanomole range
nanomole to picomole range | Cc1c(S(C)(=O)=O)c(-c2cc(F)cc(N3CCN(c4ccc(NS(=O)(=O)c5ccc(N[C@H](CCN6CCC(O)CC6)CSc6ccccc6)c(S(=O)(=O)C(F)(F)F)c5)cc4)CC3)c2)c(-c2ccc(Cl)cc2)n1C(C)C [BM-1197] | 366.7 | potent in the nanomole range
nanomole to picomole range | Cc1c(S(C)(=O)=O)c(-c2cc(F)cc(N3CCN(c4ccc(NS(=O)(=O)c5ccc(N[C@H](CCN6CCC(C(=O)O)CC6)CSc6ccccc6)c(S(=O)(=O)C(F)(F)F)c5)cc4)CC3)c2)c(-c2ccc(Cl)cc2)n1C(C)C [BM-1244] | 66.7 | 
